{"source": "patent US20090137631A1", "about": "“METHODS AND PHARMACEUTICAL COMPOSITIONS FOR REGULATION OF G- AND/OR GC-RICH NUCLEIC ACID EXPRESSION” (NATIONAL YANG-MING UNIVERSITY, priority 2007, published 2009)", "key": {"[1]": {"tested_on": "bFGF proteins in U-87 MG cells", "test": "Immunofluorescence staining of bFGF protein (FACS and fluorescence microscopy)", "type": "cell-based, human", "method": "U-87 MG cells were treated with indicated concentrations (0, 0.1, 1 and 10 μg/ml) of free-form and liposomal thalidomide and fixed in 4% (w/v) paraformaldehyde (Sigma-Aldrich) in PBS for 15 min, permeabilized with 0.01% (v/v) Triton X-100 (Sigma-Aldrich) or 0.5% (v/v) saponin (Sigma-Aldrich) in PBS for 30 min at room temperature. The cells were subsequently treated with 0.5 μg polyclonal rabbit anti human bFGF antibody (ab16828, Abeam) for 30 min at room temperature, washed, followed by staining with FITC-conjugated goat anti-rabbit IgG (Jackson ImmunoResearch) at 1:200 dilution for 30 min. Hoechst 33258 (Sigma-Aldrich) was used as a nuclear marker. The cells were then washed and visualized using a fluorescence microscope (Olympus Optical Co, Tokyo, Japan) or analyzed using the BD FACSCalibur™ flow cytometer (BD Biosciences). The relative expression level of cellular bFGFs was calculated by normalized the mean fluorescence value of each treatment with the empty liposome treated control. […] Because HMW bFGFs were the major isoforms localized in nucleus (Renko et al., 1990), a decrease of its signal intensity in this compartment might reflect a reduced expression of HMW bFGFs."}, "U-87 MG cells [2]": {"tested_on": "U-87 MG cells", "test": "Resazurin cell proliferation assay", "type": "cell-based, human", "details": "0˜100 μg/ml, 72 hr (FIG. 3A)", "experimental": "Cell proliferation ability was assayed using a resazurin assay (Nociari et al., 1998), in which resazurin dye was used as a redox indicator to detect cell growth, not cell death. Resazurin sodium (Sigma-Aldrich) stock solution in PBS (5 mM) was prepared, and the working solution (50 μM) was diluted from the stock using DMEM (Gibco) without FBS. Approximately 3000 U-87 MG cells were seeded onto 96-well plates (Costar, Corning), allowed to attach at 37° C. in a humidified incubator of 5% CO2-95% air for 16 hr, and treated with indicated concentrations (0, 0.1, 1, 10, and 100 μg/ml) of free-form and liposomal thalidomide for 72 h. For resazurin assay, the culture medium was removed and freshly diluted resazurin working solution (100 μl) was added into each well. Following incubation at 37° C. in a humidified incubator of 5% CO2-95% air for 2 hr, the resazurin dye was reduced by the activity of living cells, and the reduced form of resazurin was determined at a fluorescence excitation wavelength 530 nm and emission wavelength 590 nm by a Victor 2 1420 Multilable Counter (Wallac, PerkinElmer)."}, "U-87 MG cells [3]": {"tested_on": "U-87 MG cells", "test": "Soft agar colony formation assay (anchorage-independent growth)", "type": "cell-based, human", "details": "2 weeks; for colony-forming ability in soft agar (anchorage-independent growth): 0.1˜10 μg/ml", "method": "Because bFGF was known to promote cell transformation (Vagner et al., 1996), the soft agar colony formation assay (Murphy et al., 1992) and hanging drop method (Kelm et al., 2003) were used to assess the effects of thalidomide on anchorage-independent and three-dimensional growth abilities of U-87 MG cells, respectively. The colony forming assay was performed according to a two-layer agar technique (Murphy et al., 1992). The bottom layer consisted of 0.3 ml of DMEM with 10% FBS and 0.5% (w/v) agarose (Amresco). Approximately 1000 U-87 MG cells were added to the same medium containing 10% FBS and 0.3%) (w/v) low-melting agarose (Amresco) plus indicated concentrations (0, 0.1, 1 and 10 μg/ml) of free-form thalidomide, and plated in 24-well plates (Costar, Corning) onto the base layer. […] Colony-forming ability (size, >0.1 mm) was measured."}, "U-87 MG cells [4]": {"tested_on": "U-87 MG cells", "test": "Hanging drop spheroid aggregation assay", "type": "cell-based, human", "details": "0.1˜10 μg/ml, 48 hr, dose-dependently", "method": "For hanging drop assay, approximately 1000 U-87 MG cells per 20 μl of cell suspension in culture medium (DMEM with 10% FBS) with indicated concentrations (0, 0.1, 1 and 10 μg/ml) of free-form thalidomide were spotted on the cover of a 6-cm culture dish (Falcon). The cover was returned to its top position with the cell suspension droplet facing down toward the bottom dish, which contained 5 ml of DMEM for maintenance of moisture during incubation. […] Each spheroid was photographed by using phase-contrast microscopy. The aggregation percentage was assayed by calculating the aggregation ability from 20 spheroids for each assay condition. The cell aggregates formed in spheroid culture was abolished by free-form thalidomide dose-dependently (FIG. 3D and FIG. 3E)."}, "bFGF promoter": {"tested_on": "bFGF promoter", "test": "bFGF promoter-controlled EGFP reporter expression in U87-bFGF-EGFP cells", "type": "cell-based, human", "details": "0.1˜10 μg/ml, 3 hr, dose-dependent", "experimental": "To evaluate the effect of thalidomide on the transcription driven by bFGF promoter, pbFGF-EGFP plasmid, containing bFGF promoter to drive the expression of enhanced green fluorescence protein (EGFP), was stably transfected into U-87 MG to get U87-bFGF-EGFP cell. […] Approximately 2×10^5 U-87 MG cells were plated in 6-well plates (Falcon) 24 hr before transfection and exposed to 3 μg total DNA (plasmid pbFGF-EGFP) and 3 μl Lipofectamine 2000 (Invitrogen Corp.) in DMEM without FBS according to the manufacture's brochure of Lipofectamine 2000. After cultured at 37° C. in a humidified incubator of 5% CO2-95% air for 48 hr, cells were trypsinized and passaged into DMEM with 10% FBS (20× dilutions). Stable transfectants (U87-bFGF-EGFP cells) were selected by using geneticin (800 μg/ml; Merck Biosciences) for 1 month.\nU87-bFGF-EGFP cells were treated with indicated concentrations (0, 0.1, 1 and 10 μg/ml) of free-form thalidomide for 3 hr. The fluorescence of EGFP was measured by flow cytometry (FACS Calibur, BD Biosciences). […] The RNA levels of EGFP were analyzed by real-time RT-PCR and GAPDH was used as an internal control."}, "LMW-IRES": {"tested_on": "LMW-IRES", "test": "Bicistronic luciferase IRES activity, U87-LMW-IRES cells", "type": "cell-based, human", "details": "0.1˜10 μg/ml, 12 hr", "description": "(§1) To examine whether the G- and/or GC-rich region in IRES of N-terminal extension of bFGF transcript could also be regulated by thalidomide, plasmids pHMW-IRES and pLMW-IRES (FIG. 5A) were designed using bicistronic vector as previous described (Creancier et al., 2000). There were two luciferase genes, Renilla luciferase (LucR) and firefly luciferase (LucF), which were controlled by the cytomegalovirus (CMV) promoter and separated by the LMW-IRES fragment (SEQ ID NO. 12) and HMW-IRES fragment (SEQ ID NO. 15) in plasmids pLMW-IRES or pHMW-IRES (FIG. 5A), respectively. […] Approximately 2×10^5 U-87 MG cells were plated in 6-well plates (Falcon) 24 hr before transfection and exposed to 3 μg total DNA (plasmid pLMW-IRES or pHMW-IRES) and 3 μl Lipofectamine 2000 (Invitrogen, Carlsbad, USA) in DMEM without FBS according to the manufacture's brochure of Lipofectamine 2000. […]\n(§2) U87-LMW-IRES and U87-HMW-IRES cells were treated with indicated concentrations (0, 0.1, 1 and 10 μg/ml) of liposomal thalidomide for 12 hr, and the two luciferase activities were measured in each cell extracts by scintillation counting in a Victor 2 1420 Multilabel Counter (Wallac, PerkinElmer). The IRES activity was determined by calculating the LucR/LucF ratios (the ratio of renilla to firefly luciferase activity) normalized by the untreated control."}, "HMW-IRES": {"tested_on": "HMW-IRES", "test": "Bicistronic luciferase IRES activity, U87-HMW-IRES cells", "type": "cell-based, human", "details": "0.1˜10 μg/ml, 12 hr", "description": "as §1, §2"}, "G-rich bFGF DNA fragment": {"tested_on": "G-rich bFGF DNA fragment", "test": "UV-VIS absorbance of thalidomide after incubation with bFGF DNA fragments", "type": "binding, human", "details": "G-rich fragment (91% GC) versus non-G-rich control fragment (44% GC)", "experimental": "The G-rich fragment with 91% GC content and non-G-rich control fragment with 44% GC content were designed from the promoter region of bFGF (FIG. 6A). To examine whether thalidomide could interact preferentially with the G- and/or GC-rich region of bFGF, the ultraviolet-visible (UV-VIS) absorbance of thalidomide was assayed using a Hitachi U2000 Spectrophotometer with the scanning range from 330 to 190 nm. The absorbance of thalidomide would be diminished by bound tightly with the secondary structure of a DNA (Usha et al., 2005)."}, "[5]": {"tested_on": "bFGF RNA levels in U-87 MG cells", "experimental": "The U-87 MG cells were purchased from American Type Culture Collection (ATCC, Rockville, Md.) and maintained in Dulbecco's modified Eagle's medium (DMEM; Gibco) containing 10% heat inactivated fetal bovine serum (FBS; Gibco) and antibiotics, such as penicillin G (Sigma-Aldrich) and streptomycin (Sigma-Aldrich), at 37° C. in a humidified incubator of 5% CO2-95% air. Thalidomide (TYY Biopharm, Taiwan) was dissolved in dimethyl sulfoxide (DMSO; Sigma-Aldrich) first to make a stock solution of 50 mg/ml, and then diluted to various, desired concentrations with medium. The maximum of the final concentration of DMSO in the medium was 0.02%.\nReal-time RT-PCR analysis was used to assess the RNA levels of bFGF in U-87 MG cells. After being treated with indicated concentrations (0, 0.1, 1 and 10 μg/ml) of thalidomide for 3 hr and 12 hr, U-87 MG cells were washed twice with ice-cold phosphate buffered saline (PBS) and RNA was extracted by using RNA-Bee™ RNA isolation solvent (Tel-test). Total RNA (5 μg) was used to prepare cDNA by using AMV reverse transcriptase (Promega). The reverse-transcribed cDNA samples were analyzed by real-time PCR using ABI Prism 7700 Sequence Detection System (Applied Biosystems) and the SYBR Green Master Mix kit (Applied Biosystems). […]"}, "[6]": {"tested_on": "HMW and LMW bFGF isoforms in U-87 MG cells", "details": "1 and 10 μg/ml, 12 hr", "experimental": "Immunoblot (or western blot) analysis was therefore performed to analyze the amount of different bFGF isoforms and GAPDH was used as die internal control, which level would not be affected by thalidomide. After being treated with indicated concentrations (0, 0.1, 1 and 10 μg/ml) of free-form and liposomal thalidomide, U-87 MG cell lysate was prepared using lysis buffer (50 mM Tris [hydroxymethyl] aminomethane (Tris; USB), 1% (v/v) TritonX-100 (Sigma-Aldrich), 150 mM sodium chloride (NaCl; J. T. Baker), 1 mM ethylenediaminetetraacetic acid (EDTA; Sigma-Aldrich), 1 mM phenylmethylsulphonyl fluoride (PMSF; Sigma-Aldrich). Cell lysates (2 μg) containing proteins were separated with using 15% polyacrylamide gel electrophoresis and transferred to a polyvinylidene fluoride (PVDF) membrane (PerkinElmer). The membrane was incubated with polyclonal rabbit anti human bFGF antibody (ab16828, Abeam) at 1:200 dilution or anti-GAPDH antibody (ab9482, Abeam) at 1:10000 dilution, which was used as an internal control, followed by horseradish peroxidase-conjugated anti-IgG secondary antibody (Jackson ImmunoResearch) at 1:5000 dilution. The enhanced chemiluminescent (ECL; PerkinElmer) detection method (Amersham) was used for blotting analysis."}, "G-rich hTERT promoter": {"tested_on": "G-rich hTERT promoter", "details": "Drucker et al., 2003; cited from earlier work"}, "[7]": {"tested_on": "genes with GC-rich promoter", "details": "Drucker et al., 2003; cited from earlier work"}, "[8]": {"tested_on": "LPS induced TNF-α secretion by monocytes", "details": "Sampaio et al., 1991; cited from earlier work"}, "[9]": {"details": "clinical daily dose 200 to 800 mg, maximum 1200 mg; cited from earlier work"}, "[10]": {"test": "Stability of thalidomide in culture medium alone (9 hr pre-incubation, then bFGF transcript readout)", "details": "0.1˜10 μg/ml, 9 hr at 37° C. in culture medium before 3 hr on cells", "experimental": "In order to test the stability of thalidomide in the culture medium alone, the thalidomide stock solution was diluted with fresh culture medium to 0.1˜10 μg/ml and incubated at 37° C. in a humidified incubator of 5% CO2-95% air for 9 hr before being added to the U-87 MG cells for 3 hr."}, "[11]": {"details": "listed as free-form thalidomide"}}, "note": "Several values for one entry are separate records, joined by “and”; a condition that tells them apart may be missing. Identical values can stand only once."}
{"smiles": "O=C1CCC(N2C(=O)c3ccccc3C2=O)C(=O)N1", "note": "(racemic) [thalidomide, 2-(2,6-dioxo-3-piperidinyl)-1H-iso-indole-1,3(2H)-dione]", "values": [{"measurement": "total level of bFGF proteins", "setting": "[1]; FACS, 12 hr (FIG. 2A)", "result": "down-regulated"}, {"measurement": "nuclear level of bFGF proteins", "setting": "[1]; fluorescence microscopy, 12 hr (FIG. 2B)", "result": "down-regulated"}, {"measurement": "suppression of the proliferation of U-87 MG cells", "setting": "U-87 MG cells [2]", "result": "ineffectiveness"}, {"measurement": "colony-forming ability in soft agar (anchorage-independent growth)", "setting": "U-87 MG cells [3]", "result": "efficiently inhibited"}, {"measurement": "colony-forming ability in soft agar (anchorage-independent growth)", "setting": "U-87 MG cells [3]; [11]", "result": "dose-dependent response"}, {"measurement": "effective concentration on colony-forming ability in soft agar", "setting": "U-87 MG cells [3]", "result": 0.1, "unit": "µg/mL"}, {"measurement": "cell aggregates formed in spheroid culture", "setting": "U-87 MG cells [4]", "result": "efficiently inhibited"}, {"measurement": "cell aggregates formed in spheroid culture", "setting": "U-87 MG cells [4]; [11]", "result": "abolished"}, {"measurement": "EGFP fluorescence (flow cytometry)", "setting": "bFGF promoter", "result": "diminish"}, {"measurement": "EGFP transcripts (real-time RT-PCR)", "setting": "bFGF promoter", "result": "diminish"}, {"measurement": "LMW-IRES activity (LucR/LucF ratio)", "setting": "LMW-IRES", "result": "down regulated"}, {"measurement": "LMW-IRES activity (LucR/LucF ratio)", "setting": "LMW-IRES; listed as Thalidomide", "result": "alter the IRES activity in a dose-dependent manner"}, {"measurement": "HMW-IRES activity (LucR/LucF ratio)", "setting": "HMW-IRES", "result": "down regulated"}, {"measurement": "HMW-IRES activity (LucR/LucF ratio)", "setting": "HMW-IRES; listed as Thalidomide", "result": "alter the IRES activity in a dose-dependent manner"}, {"measurement": "quench of the absorbance at 230 nm", "setting": "G-rich bFGF DNA fragment", "result": "more severe quench"}, {"measurement": "bFGF RNA levels", "setting": "[5]; 0.1˜10 μg/ml, 3 hr", "result": "markedly reduced"}, {"measurement": "inhibitory effect on bFGF expression (RNA)", "setting": "[5]; 12 hr treatment", "result": "disappeared"}, {"measurement": "decrease of the HMW bFGFs compared with LMW bFGFs", "setting": "[6]", "result": "more dramatic than that of LMW ones"}, {"measurement": "concentrations used to suppress the G-rich hTERT promoter", "setting": "G-rich hTERT promoter", "result": "12.5 µg/mL and 25 µg/mL"}, {"measurement": "concentration down-regulating transcripts levels for genes with GC-rich promoter", "setting": "[7]", "result": "over 12.5 μg/ml"}, {"measurement": "concentration inhibiting LPS induced TNF-α secretion", "setting": "[8]", "result": 0.3, "unit": "µg/mL"}, {"measurement": "serum concentration", "setting": "[9]", "result": "1800 to 10000", "unit": "ng/mL"}, {"measurement": "activity after incubation in culture media (stability)", "setting": "[10]", "result": "completely lost its activity"}]}
